Results published in ChEMBL document CHEMBL1147755, “5-heteroatom substituted pyrazoles as canine COX-2 inhibitors. Part 1: Structure-activity relationship studies of 5-alkylamino pyrazoles and discovery of a potent, selective, and orally active analog” (Bioorg Med Chem Lett, 2006).
Active and inactive are the calls of the source. No cut-off for these calls is given here.

Key:
Canis lupus familiaris = species: Canis lupus familiaris; assay: Selectivity of COX1 over COX2 in canine whole blood assay; assay type: tissue-based
[1] = target: T1, Prostaglandin G/H synthase 1 (Canis lupus familiaris, UniProt Q8HZR1)
T1 sequence (Q8HZR1 whole entry): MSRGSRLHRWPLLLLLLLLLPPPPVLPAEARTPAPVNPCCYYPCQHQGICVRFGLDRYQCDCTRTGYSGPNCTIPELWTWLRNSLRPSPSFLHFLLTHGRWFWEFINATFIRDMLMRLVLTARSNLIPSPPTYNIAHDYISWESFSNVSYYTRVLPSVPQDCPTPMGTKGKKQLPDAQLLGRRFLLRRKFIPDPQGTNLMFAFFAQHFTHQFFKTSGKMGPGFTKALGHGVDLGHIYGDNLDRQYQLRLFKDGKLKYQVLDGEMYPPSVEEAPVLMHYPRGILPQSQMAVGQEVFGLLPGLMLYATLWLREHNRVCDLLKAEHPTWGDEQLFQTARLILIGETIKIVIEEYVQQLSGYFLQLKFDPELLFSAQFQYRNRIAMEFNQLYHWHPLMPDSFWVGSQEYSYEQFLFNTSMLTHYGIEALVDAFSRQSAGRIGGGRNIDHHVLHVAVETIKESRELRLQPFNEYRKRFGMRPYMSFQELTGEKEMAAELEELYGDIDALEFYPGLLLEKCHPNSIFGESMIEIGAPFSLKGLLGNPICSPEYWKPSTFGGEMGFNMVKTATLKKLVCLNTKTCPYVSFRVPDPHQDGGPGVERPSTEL
Description: Inhibitory activity against COX1 in canine whole blood

Cyclooxygenase-2 = target: T2, Cyclooxygenase-2 (Canis lupus familiaris, UniProt Q8SPQ9)
T2 sequence (Q8SPQ9 whole entry): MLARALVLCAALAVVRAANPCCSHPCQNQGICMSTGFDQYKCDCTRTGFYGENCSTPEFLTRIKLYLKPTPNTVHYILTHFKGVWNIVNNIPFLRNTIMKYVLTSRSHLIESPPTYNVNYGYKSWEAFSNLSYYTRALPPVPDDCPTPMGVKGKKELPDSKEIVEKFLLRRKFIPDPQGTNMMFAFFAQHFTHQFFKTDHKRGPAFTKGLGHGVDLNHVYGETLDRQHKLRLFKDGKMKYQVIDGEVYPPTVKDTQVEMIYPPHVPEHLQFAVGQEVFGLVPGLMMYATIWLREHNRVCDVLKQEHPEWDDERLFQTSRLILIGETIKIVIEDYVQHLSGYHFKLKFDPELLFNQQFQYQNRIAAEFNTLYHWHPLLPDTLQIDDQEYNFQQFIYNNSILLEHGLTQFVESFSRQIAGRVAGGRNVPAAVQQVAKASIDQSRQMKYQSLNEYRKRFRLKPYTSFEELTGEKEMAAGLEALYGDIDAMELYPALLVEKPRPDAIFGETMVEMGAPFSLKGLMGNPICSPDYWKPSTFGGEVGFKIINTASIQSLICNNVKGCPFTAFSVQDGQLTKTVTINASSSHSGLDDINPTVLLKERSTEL
Description: Inhibitory activity against COX2 in canine whole blood

[2] = Half life in dog administered at 2 mg/kg, po; assay type: ADME, organism-based, Canis lupus familiaris; parameters: dose 2 mg/kg, route oral; settings: in vivo
Canis familiaris [3] = assay: AUC in dog administered at 2 mg/kg, po; assay type: ADME, organism-based, Canis lupus familiaris, Plasma; parameters: dose 2 mg/kg, route oral; settings: in vivo
[4] = Cmax in dog administered at 2 mg/kg, po; assay type: ADME, organism-based, Canis lupus familiaris; parameters: dose 2 mg/kg, route oral; settings: in vivo
[5] = Tmax in dog administered at 2 mg/kg, po; assay type: ADME, organism-based, Canis lupus familiaris; parameters: dose 2 mg/kg, route oral; settings: in vivo
[6] = AUC in cat administered at 0.5 mg/kg, sc; assay type: ADME, organism-based, Felis catus; parameters: dose 0.5 mg/kg, route subcutaneous; settings: plasma
[7] = Cmax in cat administered at 0.5 mg/kg, sc; assay type: ADME, organism-based, Felis catus; parameters: dose 0.5 mg/kg, route subcutaneous; settings: in vivo
Canis familiaris [8] = assay: Decrease in lameness induced by synovitis in knee joints of Beagle dogs at 4 mg/kg; assay type: functional, organism-based; parameters: dose 4 mg/kg; settings: Canis lupus familiaris, Knee joint
[9] = Tmax in cat administered at 0.5 mg/kg, sc; assay type: ADME, organism-based, Felis catus; parameters: dose 0.5 mg/kg, route subcutaneous; settings: in vivo
[10] = Half life in cat administered at 0.5 mg/kg, sc; assay type: ADME, organism-based, Felis catus; parameters: dose 0.5 mg/kg, route subcutaneous; settings: in vivo

SMILES: CC(C)(C)CNc1c(C#N)c(C(F)F)nn1-c1ccc(S(N)(=O)=O)cn1
- Ratio IC50 (Canis lupus familiaris): 48.2
- IC50 [1]: 18 µM
- IC50 (Cyclooxygenase-2): 0.36 µM

SMILES: CC(C)C(C)Nc1c(C#N)c(C(F)(F)F)nn1-c1ccc(S(C)(=O)=O)cn1 (configuration not stated)
- Ratio IC50 (Canis lupus familiaris): 25.8
- IC50 [1]: 3.4 µM
- IC50 (Cyclooxygenase-2): 0.132 µM

SMILES: CS(=O)(=O)c1ccc(-n2nc(C(F)F)c(C#N)c2N2CCCCCC2)nc1
- half-life [2]: 2.1 h
- Ratio IC50 (Canis lupus familiaris): 99.3
- AUC (Canis familiaris [3]): 281 ng·h/mL
- Cmax [4]: 92 ng/mL
- Tmax [5]: 0.8 h
- IC50 [1]: 12.9 µM
- IC50 (Cyclooxygenase-2): 0.13 µM

SMILES: Cc1ccc(CNc2c(C#N)c(C(F)(F)F)nn2-c2ccc(S(C)(=O)=O)cn2)cc1
- Ratio IC50 (Canis lupus familiaris): 187
- IC50 [1]: 21.5 µM
- IC50 (Cyclooxygenase-2): 0.115 µM

SMILES: CC(C)Nc1c(C#N)c(C(F)(F)F)nn1-c1ccc(S(C)(=O)=O)cn1
- Ratio IC50 (Canis lupus familiaris): 114
- IC50 [1]: 40.8 µM
- IC50 (Cyclooxygenase-2): 0.36 µM

SMILES: CC1CCCCC1Nc1c(C#N)c(C(F)(F)F)nn1-c1ccc(S(C)(=O)=O)cn1 (configuration not stated)
- Ratio IC50 (Canis lupus familiaris): 36
- IC50 [1]: 10.8 µM
- IC50 (Cyclooxygenase-2): 0.297 µM

SMILES: CCC(CC)Nc1c(C#N)c(C(F)(F)F)nn1-c1ccc(S(C)(=O)=O)cn1
- Ratio IC50 (Canis lupus familiaris): 33.8
- IC50 [1]: 6.7 µM
- IC50 (Cyclooxygenase-2): 0.197 µM

SMILES: CCC(C)CNc1c(C#N)c(C(F)F)nn1-c1ccc(S(N)(=O)=O)cn1 (configuration not stated)
- Ratio IC50 (Canis lupus familiaris): 21.9
- IC50 [1]: 4 µM
- IC50 (Cyclooxygenase-2): 0.2 µM

SMILES: CS(=O)(=O)c1ccc(-n2nc(C(F)(F)F)c(C#N)c2NCC2CC2)nc1
- Ratio IC50 (Canis lupus familiaris): 200
- IC50 [1]: 22 µM
- IC50 (Cyclooxygenase-2): 0.11 µM

SMILES: C[C@@H]1CN(c2c(C#N)c(C(F)F)nn2-c2ccc(S(N)(=O)=O)cn2)C[C@H](C)O1
- Ratio IC50 (Canis lupus familiaris): > 10
- IC50 [1]: > 50 µM
- IC50 (Cyclooxygenase-2): 5 µM

SMILES: CS(=O)(=O)c1ccc(-n2nc(C(F)F)c(C#N)c2NCC2OCCO2)nc1
- Ratio IC50 (Canis lupus familiaris): > 259
- IC50 [1]: > 50 µM
- IC50 (Cyclooxygenase-2): 0.19 µM

SMILES: C[C@@H]1CN(c2c(C#N)c(C(F)(F)F)nn2-c2ccc(S(N)(=O)=O)cn2)C[C@H](C)O1
- Ratio IC50 (Canis lupus familiaris): > 6.3
- IC50 [1]: > 50 µM
- IC50 (Cyclooxygenase-2): 7.9 µM

SMILES: CC1CCCN(c2c(C#N)c(C(F)F)nn2-c2ccc(S(C)(=O)=O)cn2)C1 (configuration not stated)
- half-life [2]: 4.6 h
- Ratio IC50 (Canis lupus familiaris): 75
- AUC (Canis familiaris [3]): 450 ng·h/mL
- Cmax [4]: 151 ng/mL
- Tmax [5]: 0.5 h
- IC50 [1]: 2 µM
- IC50 (Cyclooxygenase-2): 0.03 µM

SMILES: CS(=O)(=O)c1ccc(-n2nc(C(F)(F)F)c(C#N)c2NCc2cccs2)nc1
- Ratio IC50 (Canis lupus familiaris): 44.5
- IC50 [1]: 5.6 µM
- IC50 (Cyclooxygenase-2): 0.125 µM

SMILES: CC(C)(C)CNc1c(C#N)c(C(F)F)nn1-c1ccc(S(C)(=O)=O)cn1
- Ratio IC50 (Canis lupus familiaris): 180
- IC50 [1]: 36.3 µM
- IC50 (Cyclooxygenase-2): 0.2 µM

SMILES: CS(=O)(=O)c1ccc(-n2nc(C(F)F)c(C#N)c2NC2CC3CCC2C3)nc1 (configuration not stated)
- Ratio IC50 (Canis lupus familiaris): 49.8
- IC50 [1]: 20.9 µM
- IC50 (Cyclooxygenase-2): 0.42 µM

SMILES: CC(C)(C)CNc1c(C#N)c(C(F)(F)F)nn1-c1ccc(S(C)(=O)=O)cn1
- Ratio IC50 (Canis lupus familiaris): > 217
- IC50 [1]: > 50 µM
- IC50 (Cyclooxygenase-2): 0.23 µM

SMILES: CC1CC(C)CN(c2c(C#N)c(C(F)(F)F)nn2-c2ccc(S(N)(=O)=O)cn2)C1 (configuration not stated)
- Ratio IC50 (Canis lupus familiaris): 22.8
- IC50 [1]: 42.6 µM
- IC50 (Cyclooxygenase-2): 1.87 µM

SMILES: N#Cc1c(C(F)(F)F)nn(-c2ccc(S(N)(=O)=O)cn2)c1NCC1CCCO1 (configuration not stated)
- half-life [2]: 1 h
- Ratio IC50 (Canis lupus familiaris): 11.7
- AUC (Canis familiaris [3]): 1360 ng·h/mL
- Cmax [4]: 528 ng/mL
- Tmax [5]: 1.5 h
- IC50 [1]: 14.6 µM
- IC50 (Cyclooxygenase-2): 1.25 µM

SMILES: C[C@@H]1CN(c2c(C#N)c(C(F)F)nn2-c2ccc(S(C)(=O)=O)cn2)C[C@H](C)O1
- half-life [2]: 11 h
- AUC [6]: 26800 ng·h/mL
- Ratio IC50 (Canis lupus familiaris): 186
- Cmax [7]: 194 ng/mL
- Activity (Canis familiaris [8]): Active
- AUC (Canis familiaris [3]): 4830 ng·h/mL
- Tmax [9]: 28 h
- Cmax [4]: 815 ng/mL
- Tmax [5]: 1.4 h
- half-life [10]: 60 h
- IC50 [1]: 43.8 µM
- IC50 (Cyclooxygenase-2): 0.24 µM

SMILES: C[C@@H]1CN(c2c(C#N)c(C(F)(F)F)nn2-c2ccc(S(C)(=O)=O)cn2)C[C@H](C)O1
- half-life [2]: 30 h
- Ratio IC50 (Canis lupus familiaris): > 357
- AUC (Canis familiaris [3]): 1950 ng·h/mL
- Cmax [4]: 134 ng/mL
- Tmax [5]: 1 h
- IC50 [1]: > 50 µM
- IC50 (Cyclooxygenase-2): 0.14 µM

SMILES: CS(=O)(=O)c1ccc(-n2nc(C(F)(F)F)c(C#N)c2NC2CC3CCC2C3)nc1 (configuration not stated)
- Ratio IC50 (Canis lupus familiaris): 107
- IC50 [1]: 15.5 µM
- IC50 (Cyclooxygenase-2): 0.144 µM

SMILES: N#Cc1c(C(F)(F)F)nn(-c2ccc(S(N)(=O)=O)cn2)c1NC1CC2CCC1C2 (configuration not stated)
- Ratio IC50 (Canis lupus familiaris): 107
- IC50 [1]: 15.5 µM
- IC50 (Cyclooxygenase-2): 0.14 µM

SMILES: CS(=O)(=O)c1ccc(-n2nc(C(F)(F)F)c(C#N)c2N2CCCCC2)nc1
- Ratio IC50 (Canis lupus familiaris): > 325
- IC50 [1]: > 50 µM
- IC50 (Cyclooxygenase-2): 0.15 µM

SMILES: CC1CC(C)CN(c2c(C#N)c(C(F)(F)F)nn2-c2ccc(S(C)(=O)=O)cn2)C1 (configuration not stated)
- Ratio IC50 (Canis lupus familiaris): > 526
- IC50 [1]: > 50 µM
- IC50 (Cyclooxygenase-2): 0.095 µM

SMILES: CS(=O)(=O)c1ccc(-n2nc(C(F)(F)F)c(C#N)c2NCC2CCCO2)nc1 (configuration not stated)
- half-life [2]: 2 h
- Ratio IC50 (Canis lupus familiaris): 262
- AUC (Canis familiaris [3]): 118 ng·h/mL
- Cmax [4]: 86 ng/mL
- Tmax [5]: 0.5 h
- IC50 [1]: 16.5 µM
- IC50 (Cyclooxygenase-2): 0.063 µM

SMILES: CCC(C)CNc1c(C#N)c(C(F)(F)F)nn1-c1ccc(S(N)(=O)=O)cn1 (configuration not stated)
- half-life [2]: 2.4 h
- Ratio IC50 (Canis lupus familiaris): 23.1
- AUC (Canis familiaris [3]): 910 ng·h/mL
- Cmax [4]: 310 ng/mL
- Tmax [5]: 1.3 h
- IC50 [1]: 4.5 µM
- IC50 (Cyclooxygenase-2): 0.19 µM

SMILES: C[C@@H]1C[C@H](C)CN(c2c(C#N)c(C(F)F)nn2-c2ccc(S(N)(=O)=O)cn2)C1
- half-life [2]: 1.5 h
- Ratio IC50 (Canis lupus familiaris): 34.7
- AUC (Canis familiaris [3]): 2100 ng·h/mL
- Cmax [4]: 506 ng/mL
- Tmax [5]: 0.5 h
- IC50 [1]: 7 µM
- IC50 (Cyclooxygenase-2): 0.21 µM

SMILES: CC(C)(C)CNc1c(C#N)c(C(F)(F)F)nn1-c1ccc(S(N)(=O)=O)cn1
- Ratio IC50 (Canis lupus familiaris): 98.7
- IC50 [1]: 13.2 µM
- IC50 (Cyclooxygenase-2): 0.13 µM

SMILES: CS(=O)(=O)c1ccc(-n2nc(C(F)(F)F)c(C#N)c2NCC2OCCO2)nc1
- Ratio IC50 (Canis lupus familiaris): > 397
- IC50 [1]: > 50 µM
- IC50 (Cyclooxygenase-2): 0.126 µM
